Measured values as given in US11161907B2, “Car-expressing cells against multiple tumor antigens and uses thereof” (Novartis AG, priority 2015, dated 2021).
“Also recorded” adds a separate entry of the source. Where two headings read alike, the source gives them in different places.

Experiments:
[1] = system: humanized CD19 CAR T cells; test: In vivo proliferation of huCAR19 CAR T cells with and without RAD001 (FACS); parameters: species or system NSG mice
Experimental: Mice were administered 5×10^6 CAR T cells 7 days after tumor implantation. Cells were partially thawed in a 37 degree Celsius water bath and then completely thawed by the addition of 1 ml of cold sterile PBS to the tube containing the cells. The thawed cells were transferred to a 15 ml falcon tube and adjusted to a final volume of 10 mls with PBS. The cells were washed twice at 1000 rpm for 10 minutes each time and then counted on a hemocytometer. T cells were then resuspended at a concentration of 50×10^6 CAR T cells per ml of cold PBS and kept on ice until the mice were dosed. The mice were injected intravenously via the tail vein with 100 μl of the CAR T cells for a dose of 5×10^6 CAR T cells per mouse. Eight mice per group were treated either with 100 μl of PBS alone (PBS), or humanized CD19 CAR T cells.
A concentrated micro-emulsion of 50 mg equal to 1 mg RAD001 was formulated and then resuspended in D5W (dextrose 5% in water) at the time of dosing. Mice were orally dosed daily (via oral gavage) with 200 μl of the desired doses of RAD001. PK analysis: Mice were dosed daily with RAD001 starting 7 days post tumor implantation. Dosing groups were as follows: 0.3 mg/kg, 1 mg/kg, 3 mg/kg, and 10 mg/kg. […]
Based on these doses, huCAR19 CAR T cells were dosed with and without RAD001 to determine the proliferative ability of these cells. […] Mice were monitored via FACS for T cell expansion.

[2] = RAD001 pharmacokinetic analysis in blood of tumor bearing mice; assay type: in vivo, NSG mice; conditions: for concentration at 24 h: NSG, mouse, whole blood
Experimental: (§1) A concentrated micro-emulsion of 50 mg equal to 1 mg RAD001 was formulated and then resuspended in D5W (dextrose 5% in water) at the time of dosing. Mice were orally dosed daily (via oral gavage) with 200 μl of the desired doses of RAD001. PK analysis: Mice were dosed daily with RAD001 starting 7 days post tumor implantation. Dosing groups were as follows: 0.3 mg/kg, 1 mg/kg, 3 mg/kg, and 10 mg/kg. Mice were bled on days 0 and 14 following the first and last dose of RAD001, at the following time points for PK analysis: 15 minutes, 30 minutes, 1 hour, 2 hours, 4 hours, 8 hours, 12 hours, and 24 hours.

[3] = system: huCART19 cells co-cultured with Nalm-6; test: 4 day co-culture proliferation assay of CARTs with RAD001; assay type: cell-based, human
Experimental: To evaluate the functionality of CARTs, the T cells are thawed and counted, and viability is assessed by Cellometer. The number of CAR-positive cells in each culture is normalized using non-transduced T cells (UTD). The impact of RAD001 on CARTs was tested in titrations with RAD001, starting at 50 nM. The target cell line used in all co-culture experiments is Nalm-6, a human pre-B cell acute lymphoblastic leukemia (ALL) cell line expressing CD19 and transduced to express luciferase.
For measuring the proliferation of CARTs, T cells are cultured with target cells at a ratio of 1:1. The assay is run for 4 days, when cells are stained for CD3, CD4, CD8 and CAR expression. The number of T cells is assessed by flow cytometry using counting beads as reference.

NALM6-luc tumors = test: NALM6-luc tumor growth with daily oral RAD001; assay type: in vivo, NSG mice; conditions: daily oral dosing of RAD001 alone, 0.3-10 mg/kg
Experimental: NALM6-luc cells were grown and expanded in vitro in RPMI supplemented with 10% heat inactivated fetal bovine serum. The cells were then transferred to a 15 ml conical tube and washed twice with cold sterile PBS. NALM6-luc cells were then counted and resuspended at a concentration of 10×10^6 cells per milliliter of PBS. The cells were placed on ice and immediately (within one hour) implanted in the mice. NALM6-luc cells were injected intravenously via the tail vein in a 100 μl volume, for a total of 1×10^6 cells per mouse.
as §1

FRA = FRA (Homo sapiens, UniProt P15328); conditions: cited from earlier work
Chain of FRA (P15328 25-234): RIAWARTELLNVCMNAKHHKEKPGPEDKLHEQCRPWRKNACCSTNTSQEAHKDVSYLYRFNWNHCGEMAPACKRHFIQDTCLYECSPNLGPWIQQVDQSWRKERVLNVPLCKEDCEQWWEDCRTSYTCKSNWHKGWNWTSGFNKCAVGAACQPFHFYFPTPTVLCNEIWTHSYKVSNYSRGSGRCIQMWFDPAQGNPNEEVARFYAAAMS

[4] = system: subcutaneous SKOV3 tumors; test: Established subcutaneous SKOV3 xenograft model of ovarian cancer; assay type: in vivo, NSG mice; conditions: 3 weeks following adoptive transfer, versus UNT and CD19-27z groups
Excerpt: All animals were obtained from the Stem Cell and Xenograft Core of the Abramson Cancer Center, University of Pennsylvania. Six to 12-week-old NOD/SCID/γ-chain−/− (NSG) mice were bred, treated and maintained under pathogen-free conditions in-house under University of Pennsylvania IACUC approved protocols. For an established ovarian cancer model, 6 to 12-week-old female NSG mice were inoculated s.c. with 3×10^6 SKOV3 fLuc+ cells on the flank on day 0. After tumors become palpable at about 1 month, human primary T cell (CD4+ and CD8+ T cells used were mixed at 1:1 ratio) were activated, and transduced as described above. After 2 weeks T cell expansion, when the tumor burden was ˜200-300 mm^3, mice were treated with T cells. The route, dose, and timing of T-cell injections is indicated in the individual figure legends. Tumor dimensions were measured with calipers, and tumor volumes calculated using the formula V=½(length×width^2), where length is greatest longitudinal diameter and width is greatest transverse diameter. […] Photon emission from fLuc+ cells was quantified using the “Living Image” software (Xenogen) for all in vivo experiments. […]
Tumor growth was also monitored by Bioluminescent imaging (BLI). BLI was done using Xenogen IVIS imaging system and the photons emitted from fLuc-expressing cells within the animal body were quantified using Living Image software (Xenogen). […]

Row | Molecule | CAR T cell proliferation in vivo ([1]; 0.003 mg/kg RAD001 daily) | proliferation of the CAR T cells in vivo ([1]; lowest doses of RAD001, daily oral) | concentration at 24 h ([2]; oral, 0.3 mg/kg, 24 hours after the final dose, read-out: concentration of RAD001) [nM] | concentration at 24 h ([2]; day 0 PK, 24 hours after dosing, 0.3 mg/kg oral, read-out: RAD001 concentration in the blood) [nM] | RAD001 concentration in the blood ([2]; day 14 PK, 24 hours after dosing, 0.3 mg/kg oral) | stability in the blood ([2]; tumor bearing mice) | proliferation of huCART19 cells ([3]; 0.0032 and 0.016 nM RAD001) | RAD001 concentration at which huCART19 cells expanded ([3]; 4 day co-culture with Nalm-6, 1:1) | impact on the growth of NALM6-luc tumors (NALM6-luc tumors) | binding affinity relative to murine MOv19 (FRA) | persistence of transferred T-cells in the peripheral blood [4]
1 | CO[C@H]1C[C@@H]2CC[C@@H](C)[C@@](O)(O2)C(=O)C(=O)N2CCCC[C@H]2C(=O)O[C@H]([C@H](C)C[C@@H]2CC[C@@H](OCCO)[C@H](OC)C2)CC(=O)[C@H](C)/C=C(\C)[C@@H](O)[C@@H](OC)C(=O)[C@H](C)C[C@H](C)/C=C/C=C/C=C/1C [RAD001, (1R,9S,12S,15R,16E,18R,19R,21R,23S,24E,26E,28E,30S,32S,35R)-1,18-dihydroxy-12-{(1R)-2-[(1S,3R,4R)-4-(2-hydroxyethoxy)-3-methoxycyclohexyl]-1-methylethyl}-19,30-dimethoxy-15,17,21,23,29,35-hexamethyl-11,36-dioxa-4-aza-tricyclo[30.3.1.04,9]hexatriaconta-16,24,26,28-tetraene-2,3,10,14,20-pentaone] | enhancement in CAR T cell proliferation | enhanced proliferation | > 10 | > 10 | above 10 nm | fairly stable | higher than observed without the addition of RAD001 | less than 0.016 nM | did not have an impact |  | 
2 | C4: fully human anti-FRA scFv/Fab fragment, scFv SEQ ID NO: 98 (protein) scFv: QLVESGGGLVQPGRSLRLSCTTSGFTFGDYAMIWARQAPGKGLEWVSSISSSSSYIYYADSVKGRFTISRDNAKNSLYLQMNSLRAEDTAVYYCARERYDFWSGMDVWGKGTTVTVSSGGGGSGGGGSGGSAQSALTQPASVSGSPGQSITISCTGTSSDVGSYNLVSWYQQHPGKAPKLMIYEGSKRPSGVSNRFSGSKSGNAASLTISGLQAEDEADYYCQSYDSSLSVVFGGGTKLTVLG |  |  |  |  |  |  |  |  |  | approximately five-fold less; also recorded: approximately five-fold weaker | higher numbers of CD4+ and CD8+ T cells
